Experimental data taken from publication PMC7738856, “Inter and intra-tumor somatostatin receptor 2 heterogeneity influences peptide receptor radionuclide therapy response” (Theranostics, 2021).

Experiments:
NCI-H69 tumors [1] = test: Tumor growth and survival, NCI-H69 xenografts; assay type: in vivo, BALB-c/nude mice; settings: n = 8
Description: (§1) Animal experiments were approved by the Animal Welfare Committee of the Erasmus MC and were conducted in accordance with European guidelines. Animal experiments included a time series for analyses of radiobiological parameters in NCI-H69 xenografts and survival cohorts with NCI-H69 or CA20948 xenografts.
(§2) BALB-c/nude mice were engrafted subcutaneously with 5 x 10^6 NCI-H69 cells in 200 µl HBSS containing 33,3% Matrigel or with 5 x 10^6 CA20948 cells in 200 µl HBSS. Mice with NCI-H69 tumors (n = 8) were injected when tumor volumes reached 697 ± 256 mm^3 and mice with CA20948 tumors (n = 9) when tumor reached 318 ± 216 mm^3. Both groups were compared to vehicle injected counterparts (n = 8 and n = 6, respectively). Tumor volumes were measured three times per week p.i. Mice were sacrificed when tumor volumes reached the humane endpoint of 2000 mm^3. Tumors were fixed in formalin for 1 day at RT and stored in 70% ethanol until they were embedded in paraffin.

[2] = tested on: CA20948 and NCI-H69 cells; test: In vitro uptake of radioactivity (γ-counts) in cells; assay type: cell-based; settings: 1 MBq/mL, 4 h incubation, n = 3 experiments
Description: NCI-H69 cells (ATCC) were cultured in Rosewell Park Medium Institute […] medium (RPMI-1638) (Sigma-Aldrich) supplemented with penicillin (50 units/mL), streptomycin (50 µg/mL) (Pen/Strep) and 10% fetal calf serum (FCS). CA20948 [14] cells were cultured in Dulbecco's Modified Eagle's Medium (DMEM) (Gibco) supplemented with Pen/Strep and 10% FCS. Cells were cultured at 37 °C and 5% CO2.
NCI-H69 cells were spun down on a glass slide using a cytospin centrifuge (Rotofix 32A, Hettich) for 6 minutes at 347 g at room temperature (RT). CA20948 cells were washed and fixed on coverslips. Fixation was done using 2% paraformaldehyde (PFA) for 20 minutes at RT and samples were stained according to protocol (see below).
S4. [177Lu]Lu-DO T A -TATE uptake in SST2hi g h and SST2low NCI-H69 cells. (A) lutetium- 177 uptake measured by γ-counts in NCI-H69 and CA20948 cells after 4 hours of incubation (experiment n = 3).
**p < 0.01 (B) Representative IF images of SST2 after [ 177Lu]Lu-DOT A- TATE treatment. Arrows indicate internalization and accumulation of SST 2.
S5. Additional foci quantifications in SST2hi g h and SST2low cells. γH2AX foci quantification in SST2high and SST 2lo w NC I -H69 cells 2 days after [177Lu]Lu-DOT A -TATE treatment. Error bars indicate […]

NCl-H69 xenografted mice = tested on: NCl-H69 xenografted mice; set-up: species or system BALB-c/nude mice; settings: mouse, in vivo, iv
Description: BALB-c/nude mice were engrafted subcutaneously with 5 x 10^6 NCI-H69 cells in 200 µl Hanks Balanced Salt Solution (HBSS) (Gibco, 14065056) containing 33,3% Matrigel (Corning, 354248). […] Mice were sacrificed by cervical dislocation and analyzed at 1 h, 1, 2, 3, 4, 5, 7, 9, 11 and 14 days post injection (p.i.). Organs were put in a gamma-counter for measurement of radioactive uptake and then fixed in formalin for 1 day at RT and stored in 70% ethanol until they were embedded in paraffin. Uninjected animals were used as control (n = 4).
The biodistribution data were analyzed to determine the kinetics of the activity in organs and tumors. The measured activity data as a function of time were fitted with single or double exponential curves using the least-square regression method with Graphpad Prism version 5 (graphpad.com). Decisions on to use a single or a double exponential curve was based on the (corrected) Akaike's information criterion. The time-activity curves were integrated over time to determine the time-integrated activity coefficients after folding in the lutetium-177 decay function. Absorbed doses in all organs and in the tumor were calculated by using the MIRD equation with the lutetium-177 S-values for a 22 g mouse Moby phantom, kindly provided by Dr Erik Larsson.

NCI-H69 cells = test: 53BP1 and γH2AX foci in cells after in vitro treatment; assay type: cell-based
Description: NCI-H69 cells (ATCC) were cultured in Rosewell Park Medium Institute […] medium (RPMI-1638) (Sigma-Aldrich) supplemented with penicillin (50 units/mL), streptomycin (50 µg/mL) (Pen/Strep) and 10% fetal calf serum (FCS). CA20948 [14] cells were cultured in Dulbecco's Modified Eagle's Medium (DMEM) (Gibco) supplemented with Pen/Strep and 10% FCS. Cells were cultured at 37 °C and 5% CO2. […] NCI-H69 cells were spun down on a glass slide using a cytospin centrifuge (Rotofix 32A, Hettich) for 6 minutes at 347 g at room temperature (RT). CA20948 cells were washed and fixed on coverslips. Fixation was done using 2% paraformaldehyde (PFA) for 20 minutes at RT and samples were stained according to protocol (see below). Cells were IF stained as previously described. Briefly, tissue sections were deparaffinized as described above. Then antigen retrieval was performed by boiling slides for 20 minutes in pH 6 (for cytoplasmic antigens) or pH 9 (for nuclear antigens) antigen retrieval buffer (DAKO) and cooling down to RT. […] Tiles were stitched, thresholded and quantified using ImageJ. ImageJ was utilized to apply the same local threshold (default for DAPI, MaxEntropy for SST2) to all images in order to segment nuclei or quantify DAPI signal and quantify IF signal. Foci were quantified using the Find Maxima function.

NCl-H69 tumors = test: Ki-67 immunohistochemistry of tumor sections; assay type: in vivo, BALB-c/nude mice
Description: BALB-c/nude mice were engrafted subcutaneously with 5 x 10^6 NCI-H69 cells in 200 μl Hanks Balanced Salt Solution (HBSS) (Gibco, 14065056) containing 33,3% Matrigel (Corning, 354248). […] Organs were put in a gamma-counter for measurement of radioactive uptake and then fixed in formalin for 1 day at RT and stored in 70% ethanol until they were embedded in paraffin. Uninjected animals were used as control (n = 4). […] Secondary antibodies used are donkey-anti-rabbit IgG Alexa Fluor 594 (Thermo Fisher, A-11078; 1:500) and donkey-anti-mouse IgG Alexa Fluor 488 (Thermo Fisher; A-11005; 1:500). For immunohistochemical stainings (IHC) Ki-67 (Abcam, ab15580; 1:200) was used. Here, the secondary antibody used is Peroxidase donkey-anti-rabbit IgG (Jackson Immunoresearch, 711-035-152; 1:2000). Tissue sections of 4 μm were deparaffinized and rehydrated. Samples were then incubated in 3% H2O2 (Honeywell, 95299) in methanol (Honeywell, 32213-2.5l) for 20 minutes at RT. Slides were washed with tap water and boiled in pH 6 Antigen Retrieval buffer for 20 minutes. Slides were incubated in blocking solution (PBS 5%BSA), following with the primary antibody in blocking solution overnight at 4 °C and with the secondary antibody in blocking solution for 90 minutes at RT. […] Quantification was performed in ImageJ by using particle analysis after.

NCI-H69 tumors [3] = test: 53BP1 and γH2AX foci (immunofluorescence) in tumor sections; assay type: in vivo, BALB-c/nude mice; settings: 2 days p.i.
Description: BALB-c/nude mice were engrafted subcutaneously with 5 x 10^6 NCI-H69 cells in 200 µl Hanks Balanced Salt Solution (HBSS) (Gibco, 14065056) containing 33,3% Matrigel (Corning, 354248). […] Organs were put in a gamma-counter for measurement of radioactive uptake and then fixed in formalin for 1 day at RT and stored in 70% ethanol until they were embedded in paraffin. Uninjected animals were used as control (n = 4). […] Secondary antibodies used are donkey-anti-rabbit IgG Alexa Fluor 594 (Thermo Fisher, A-11078; 1:500) and donkey-anti-mouse IgG Alexa Fluor 488 (Thermo Fisher; A-11005; 1:500). For immunohistochemical stainings (IHC) Ki-67 (Abcam, ab15580; 1:200) was used. Here, the secondary antibody used is Peroxidase donkey-anti-rabbit IgG (Jackson Immunoresearch, 711-035-152; 1:2000). Cells were IF stained as previously described. Briefly, tissue sections were deparaffinized as described above. Then antigen retrieval was performed by boiling slides for 20 minutes in pH 6 (for cytoplasmic antigens) or pH 9 (for nuclear antigens) antigen retrieval buffer (DAKO) and cooling down to RT. Tissues were permeabilized with PBS+0.5% Triton (PBS(T)) at RT and blocked with 3% BSA in PBS(T) at RT. Sections were incubated with primary antibodies overnight at 4 °C in block buffer and with secondary antibodies for 60 minutes at RT. Mounting was done using Vectashield containing DAPI (Vector labs, H-1200). 53BP1 and γH2AX focus formation was imaged with a Leica SP5 confocal microscope (Leica) using Z-stack acquisition. For tile-scan analyses a LSM700 confocal microscope (Zeiss) was used. Tiles were stitched, thresholded and quantified using ImageJ. ImageJ was utilized to apply the same local threshold (default for DAPI, MaxEntropy for SST2) to all images in order to segment nuclei or quantify DAPI signal and quantify IF signal. Foci were quantified using the Find Maxima function.

NCI-H69 tumors [4] = test: TUNEL assay on tumor sections; assay type: in vivo, BALB-c/nude mice; settings: 30 MBq, n = 4; for TUNEL positive areas (average): 25 fields of view per tumor
Description: BALB-c/nude mice were engrafted subcutaneously with 5 x 10^6 NCI-H69 cells in 200 µl Hanks Balanced Salt Solution (HBSS) (Gibco, 14065056) containing 33,3% Matrigel (Corning, 354248). […] Organs were put in a gamma-counter for measurement of radioactive uptake and then fixed in formalin for 1 day at RT and stored in 70% ethanol until they were embedded in paraffin. Uninjected animals were used as control (n = 4). Tissue sections of 4 µm were deparaffinized and rehydrated. TUNEL assay was performed using the In Situ Cell Death Detection Kit, Fluorescein (Roche, 11684795910) according to manufacturer's instructions. 53BP1 and γH2AX focus formation was imaged with a Leica SP5 confocal microscope (Leica) using Z-stack acquisition. For tile-scan analyses a LSM700 confocal microscope (Zeiss) was used. Tiles were stitched, thresholded and quantified using ImageJ.

CA20948 tumors = test: Tumor growth and survival, CA20948 xenografts; assay type: in vivo, BALB-c/nude mice; settings: treated CA20948 bearing mice, 30 MBq, n = 9
Description: as §1, §2

## C[C@@H](O)[C@H](NC(=O)[C@@H]1CSSC[C@H](NC(=O)[C@@H](Cc2ccccc2)NC(=O)CN2CCN(CC(=O)O)CCN(CC(=O)O)CCN(CC(=O)O)CC2)C(=O)N[C@@H](Cc2ccc(O)cc2)C(=O)N[C@H](Cc2c[nH]c3ccccc23)C(=O)N[C@@H](CCCCN)C(=O)N[C@@H]([C@@H](C)O)C(=O)N1)C(=O)O [[^177Lu]Lu-DOTA-TATE, [^177Lu]Lu-DOTA-[Tyr^3]octreotate, metal not drawn]
NCI-H69 tumors [1]; 14 days p.i., then regrowth, 30 MBq single injection
  tumor volume as % of the starting volume: 71%
NCI-H69 tumors [1]; treated NCI-H69 bearing mice, 30 MBq
  median survival: 34 days
[2]
  uptake of radioactivity in CA20948 compared to NCI-H69 cells: 3 fold
NCl-H69 xenografted mice
  absorbed dose, kidney: 3.5 ± 0.12 Gy
  absorbed dose, other organs: 0.22-1.48 Gy
  absorbed dose, tumor: 10.08 ± 0.35 Gy
NCI-H69 cells; 1 day post treatment, 1 MBq/mL for 4 h at 37 °C
  level of 53BP1 and γH2AX foci per cell versus non-treated cells: significant increase
NCI-H69 cells; 2 days after incubation, 1 MBq/mL for 4 h
  γH2AX foci in SST2 high versus SST2 low NCI-H69 cells in vitro: significant higher number
NCl-H69 tumors; 2 days after treatment, significantly increased
  Ki-67 positive cells: 74.13%
NCl-H69 tumors; all samples regardless of therapy, except 2 days after treatment
  Ki-67 positive (cycling) cells in non-apoptotic regions: 60.96 ± 5.32%
NCI-H69 tumors [3]; n = 4
  γH2AX foci in SST2 high cells, treated versus non-treated SST2 high regions: significant increase
  γH2AX foci in SST2 high versus SST2 low cells in tumors from treated mice: significantly higher number
  γH2AX foci in SST2 low cells, treated versus non-treated mice: no significant increase
NCI-H69 tumors [3]; versus NT controls
  increase in the number of γH2AX foci: 5 fold
NCI-H69 tumors [4]; 4 days p.i.
  TUNEL positive areas (average): 50%
NCI-H69 tumors [4]; 5 days p.i.
  TUNEL positive areas (average): 47%
NCI-H69 tumors [4]; 14 days after treatment
  fraction of TUNEL positive cells (average): 26%
CA20948 tumors
  median survival: 54 days
